According to patent US10201558B2, “Compositions of selenoorganic compounds and methods of use thereof” (Alltech, Inc., priority 2014, dated 2019):
“Also recorded” adds a separate entry of the source.

Key:
Type in all cases: cell-based, human
[1] = system: PGC-1α; assay: Western blot of PGC-1α protein in IMR-32 cells; settings: 150 ppb, 24 hours
Description: (§1) IMR-32 cells were seeded on 6-well plates and then treated with control and various compounds for 6 hours and 24 hours, as described above. After treatments, cells were rinsed with ice-cold PBS and lysed in ice-cold RIPA buffer containing complete proteinase and phosphatase inhibitors (Thermo-Fisher Scientific, Waltham, Mass.) on ice for 30 min Cell lysates were collected using a cell scraper and transfer pipette and then centrifuged at 12000×g for 30 min at 4° C. to remove the DNA pellet and obtain the protein extract. Protein levels in the supernatant of these cell lysates were determined using the Pierce Micro-BCA protein assay kit (Thermo Scientific-Piece Biotechnology, Rockford, Ill.) according to the manufacturer's protocol […]
(§2) Positive signals on the membrane blots were detected using Amersham's enhanced chemiluminescence (ECL) Western Blotting Prime Detection reagents (GE healthcare Lifescience, Pittsburgh, Pa.). Images of these luminescence signals on the membrane blots were captured using the LI-COR Odyssey Fc Image system (Lincoln, Nebr.). […] Protein band densities in the Western blots were determined using the Li—COR Image studio software or NIH ImageJ software, and then normalized by ACTB protein level in each sample. […]

[2] = system: UCP2; assay: QRT-PCR of UCP2 mRNA in IMR-32 cells; settings: 150 ppb, 6 hours
Description: (§3) Human IMR-32 cells were seeded on gelatinized 6-well (6.5×10^5 cells/well) or 24-well (1.3×10^5 cells/well) plates. Cells were treated with control (0 ppb) or various compounds for 6 hours or 24 hours. Total RNA from these cells was isolated using Trizol (Invitrogen) according to the manufacturer's protocol, and then incubated with DNase I to remove any potential contaminated genomic DNA. Then RNA samples were subjected to real-time PCR analysis using the Applied-Bioscience's RT kit and predesigned Taqman probes (Invitrogen), as described previously (Lan et al EMBO J 2003). The mRNA levels of UCP1, UCP2, UCP3, SLC25A27 (UCP4), SLC25A14 (UCP5), PSEN1, Nicastrin, GSK3B, MAPK11-14, PPARG, APOE, RCAN1, RCAN1.1, G6PC, INSR, IGF1R and FOXO4 were measured. Three to six samples were analyzed in each treatment group. Data were normalized by Actin B (ACTB) or Glyceraldehyde Phosphate Dehydrogenase (GAPDH) mRNA levels in each sample and are presented as mean±SEM of 3-6 samples.

[3] = system: UCP5 (SLC25A14); assay: QRT-PCR of UCP5 (SLC25A14) mRNA in IMR-32 cells; settings: 150 ppb, 6 hours
Description: as §3

[4] = system: NICASTRIN; assay: Western blot of NICASTRIN protein in IMR-32 cells; settings: 150 ppb, 24 hours
Description: as §1, §2

[5] = system: PSEN1; assay: QRT-PCR of PSEN1 mRNA in IMR-32 cells
Description: as §3
RNA samples were extracted, purified, and subjected to real-time PCR analysis using Applied-Bioscience's RT kit and Taqman probes (Invitrogen) as described previously in Example 4. Protein samples were also prepared from cell lysates and western blot analysis was performed as previously described in Example 4. Data are presented as mean±SEM of 3 protein samples and 4 RNA samples per group. The relative mRNA and protein expression levels of PSEN1 and NICASTRIN, were measured. All primary antibodies were purchased from Cell Signaling Inc., Beverly, Mass.

[6] = system: GSK3B; assay: QRT-PCR of GSK3B mRNA in IMR-32 cells (normal, control KD, FOXO4 KD); settings: for GSK3B mRNA levels: IMR-32 cells
Description: IMR-32 cells were cultured on 12-well plates for 24 hours and then incubated with FOXO4 siRNA lentiviruses (SC-29650V, Santa Cruz) or control siRNA lentiviruses (sc-108080, Santa Cruz) in the presence of Polybrene (5 μg/ml, Santa Cruz) for 24 hours according to the manufacturer's protocol. These lentiviral siRNA-transfected cells were amplified in normal media for 3 days and then incubated with puromycin for 9-14 days to obtain the stable Control KD (stably transfected with the control siRNAs) and FOXO4KD (stably transfected with Foxo4 siRNAs) cells. These control and Foxo4 KD cells were subjected to cell survival, mitochondrial potential and RNA analysis.
as §3
Expression of genes such as Nicastrin and GSK3B (FIGS. 3A, 3C, 3G-3I, 4A, 4F-4H) which are associated with early-onset AD pathogenesis was attenuated by Compound C. […] Therefore, GSK3B and Nicastrin likely are two direct downstream target genes of FOXO4 in neuronal cells in humans.

[7] = system: p38; assay: Western blot of total p38 protein in IMR-32 cells; settings: 150 ppb, 24 hours
Description: as §1, §2

[8] = system: RCAN1.1; assay: Western blot of RCAN1 (RCAN1.1) protein in IMR-32 cells; settings: 150 ppb, 24 hours
Description: as §1, §2
The ability of selenium compounds to regulate RCAN1 expression in IMR-32 cells was also assessed. […]

[9] = system: phosphorylated FOXO4 (pFOXO4 T28); assay: Western blot of phosphorylated FOXO4 in IMR-32 cells; settings: for phosphorylation of FOXO4 (pFOXO4) levels: 6 hours; for pFOXO4 Threonine 28 (T28) levels: 24 hours
Description: IMR-32 cells were seeded on 6-well plates and then treated with control and various compounds for 6 hours and 24 hours, as described above. After treatments, cells were rinsed with ice-cold PBS and lysed in ice-cold RIPA buffer containing complete proteinase and phosphatase inhibitors (Thermo-Fisher Scientific, Waltham, Mass.) on ice for 30 min Cell lysates were collected using a cell scraper and transfer pipette and then centrifuged at 12000×g for 30 min at 4° C. to remove the DNA pellet and obtain the protein extract. Protein levels in the supernatant of these cell lysates were determined using the Pierce Micro-BCA protein assay kit (Thermo Scientific-Piece Biotechnology, Rockford, Ill.) according to the manufacturer's protocol
For Western blot analysis, five micrograms of total proteins from control (0 ppb)- and compound(s)-treated cells were subjected to SDS-PAGE gel separation and then transferred to PVDF membranes, as described previously (Reddy, Liu et al. 2008 Science). Membranes were blocked in a phosphate-buffered saline (PBS) containing 5% (w/v) of bovine serum albumin (Sigma, St. Louis, Mo.) and incubated with specific primary antibodies followed by the incubation with HRP-conjugated anti-mouse or anti-rabbit secondary antibodies (1:5000 dilution, Cell Signaling Inc.). All primary antibodies except PGC1a (Abcam, Cambridge, Mass.), G6pc (Santa Cruz, Dallas, Tex.) and Actb (Li-Cor, Lincoln, Nebr.) were purchased from Cell Signaling Inc., Beverly, Mass.
Positive signals on the membrane blots were detected using Amersham's enhanced chemiluminescence (ECL) Western Blotting Prime Detection reagents (GE healthcare Lifescience, Pittsburgh, Pa.). Images of these luminescence signals on the membrane blots were captured using the LI-COR Odyssey Fc Image system (Lincoln, Nebr.). The same membrane blot was stripped and re-blotted with another antibody as described in the GE WB ECL-prime-detection protocol (GE Healthcare Lifescience, Pittsburgh, Pa.). Protein band densities in the Western blots were determined using the Li—COR Image studio software or NIH ImageJ software, and then normalized by ACTB protein level in each sample. Data are presented as mean±SEM of three samples per each group.

[10] = system: pAKT; assay: Western blot of pAKT in IMR-32 cells; settings: 6 hours and 24 hours
Description: as §1, §2

C[Se]C[C@H]1O[C@@H](n2cnc3c(N)ncnc32)C(O)C1O (stereo in doubt) [Compound C, 5′-deoxy-5′-methylselenoadenosine]
PGC-1α protein levels (normalized by ACTB) [1]: increase; also recorded: elevated
UCP2 mRNA expression [2]: significant decrease; also recorded: inhibited
UCP5 (SLC25A14) mRNA expression [3]: trend towards decreased; also recorded: trend towards reduced
NICASTRIN protein levels [4]: significant reduction
PSEN1 mRNA expression, dose response ([5]; 75 ppb and 150 ppb, 24 hours): Significant dose-dependent decreases
PSEN1 mRNA expression ([5]; 150 ppb, 6 hours and 24 hours): significantly reduced
GSK3B mRNA expression ([6]; FOXO4KD cells, 75 ppb and 150 ppb, 24 hours): not in FOXO4KD cells
GSK3B mRNA levels ([6]; 75 ppb and 150 ppb, 24 hours): significantly downregulated
GSK3B mRNA levels ([6]; 150 ppb, 6 hours): significantly decreased
GSK3B mRNA expression ([6]; control KD cells, 75 ppb and 150 ppb, 24 hours): attenuated
Total p38 protein levels [7]: visibly decreased; also recorded: statistically significant decrease
RCAN1.1 protein levels [8]: decrease
phosphorylation of FOXO4 (pFOXO4) levels [9]: decrease
pFOXO4 Threonine 28 (T28) levels [9]: decreased
pAKT protein levels [10]: not visibly decreased

C[Se]C[C@H](NC(=O)CC[C@H](N)C(=O)O)C(=O)O [Compound E, γ-L-glutamyl-Se-methyl-L-selenocysteine]
PGC-1α protein levels (normalized by ACTB) [1]: increase
UCP2 mRNA expression [2]: did not have any effect
UCP5 (SLC25A14) mRNA expression [3]: did not have any effect
NICASTRIN protein levels [4]: trend towards reduced
PSEN1 mRNA expression ([5]; 24 hours): stimulated
GSK3B mRNA levels ([6]; 150 ppb, 6 hours): did not significantly inhibit
Total p38 protein levels [7]: not observed; also recorded: not Compound E
RCAN1.1 protein levels [8]: not Compound E
phosphorylation of FOXO4 (pFOXO4) levels [9]: decrease
pFOXO4 Threonine 28 (T28) levels [9]: decreased
pAKT protein levels [10]: not visibly decreased
